The source of these data is US10759793B2, “2-(pyrazolopyridin-3-yl)pyrimidine derivatives as JAK inhibitors” (ALMIRALL, S.A., priority 2015, dated 2020).

What all share (type): biochemical
Assay [1] concerns the target JAK3 (Homo sapiens (Human), UniProt P52333). Put plainly: In vitro JAK kinase assay (TR-FRET), JAK3. The settings on record: catalytic domain aa 795-1124, GST-fusion; ATP 0.6 μM; peptide 140 nM; 30 minutes at room temperature. As for the experimental part: (§1) Compounds were screened for their ability to inhibit JAK1, JAK2 and JAK3 using the assays as indicated below. […] The enzymatic activity was assayed using as substrate a biotinylated peptide, poly (GT)-Biotin (CisBio). […] The degree of phosphorylation was detected by TR-FRET (time-resolved fluorescence energy transfer). […] The enzymatic reactions took place for 30 minutes at room temperature. […] Incubate for 3 h and read on Victor 2V spectrofluorometer (Perkin Elmer) set to read fluorescence resonance energy transfer.

In assay [2] the target is JAK2 (Homo sapiens (Human), UniProt O60674). Put plainly: In vitro JAK kinase assay (TR-FRET), JAK2. The note with it: catalytic domain aa 826-1132, GST-fusion; ATP 0.2 μM; peptide 20 nM; 30 minutes at room temperature. As for the experimental part: as §1
Chain of JAK2 (O60674 826-1132): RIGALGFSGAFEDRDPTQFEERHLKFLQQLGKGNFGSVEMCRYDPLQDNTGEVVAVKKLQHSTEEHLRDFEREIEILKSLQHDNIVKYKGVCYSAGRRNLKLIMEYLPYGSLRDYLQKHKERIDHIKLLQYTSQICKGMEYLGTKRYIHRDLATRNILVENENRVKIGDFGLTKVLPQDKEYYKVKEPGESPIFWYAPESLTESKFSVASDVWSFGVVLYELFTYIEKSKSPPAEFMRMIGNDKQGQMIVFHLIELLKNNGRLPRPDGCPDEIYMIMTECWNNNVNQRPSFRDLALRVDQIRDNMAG
(In general: Time-resolved FRET reads energy transfer from a long-lived donor to a nearby acceptor.)

Assay [3] concerns the target JAK1 (Homo sapiens (Human), UniProt P23458). The assay is described as follows: In vitro JAK kinase assay (TR-FRET), JAK1. The note with it: catalytic domain aa 850-1154, GST-fusion; ATP 3 μM; peptide 60 nM; 30 minutes at room temperature. As for the experimental part:
as §1

Chain of JAK1 (P23458 850-1154): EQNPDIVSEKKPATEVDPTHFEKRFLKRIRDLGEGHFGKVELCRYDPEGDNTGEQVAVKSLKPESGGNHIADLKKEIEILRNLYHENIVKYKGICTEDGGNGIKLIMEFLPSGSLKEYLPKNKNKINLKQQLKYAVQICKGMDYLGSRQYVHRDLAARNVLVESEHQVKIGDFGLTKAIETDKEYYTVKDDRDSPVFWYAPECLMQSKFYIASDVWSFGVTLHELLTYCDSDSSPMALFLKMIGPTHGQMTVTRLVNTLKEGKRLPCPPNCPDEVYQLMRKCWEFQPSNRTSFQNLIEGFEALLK
Chain of JAK3 (P52333 795-1124): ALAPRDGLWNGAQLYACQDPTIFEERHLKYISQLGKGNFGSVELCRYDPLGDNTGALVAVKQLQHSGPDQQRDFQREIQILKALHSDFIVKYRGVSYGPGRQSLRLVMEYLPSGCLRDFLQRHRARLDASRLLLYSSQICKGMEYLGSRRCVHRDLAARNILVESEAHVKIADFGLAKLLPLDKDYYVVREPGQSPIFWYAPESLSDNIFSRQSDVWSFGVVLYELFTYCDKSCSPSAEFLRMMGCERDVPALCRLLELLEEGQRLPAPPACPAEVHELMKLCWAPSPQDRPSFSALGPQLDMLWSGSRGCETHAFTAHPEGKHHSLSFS

`CC(C)OC(=O)c1nc(-c2cnn3ccccc23)nc(N[C@@H]2CCCN(C(=O)CO)C2)c1F` [Example 92, Isopropyl 5-fluoro-6-{[(3R)-1-glycoloylpiperidin-3-yl]amino}-2-pyrazolo[1,5-a]pyridin-3-ylpyrimidine-4-carboxylate]: the results for the IC50 in assay [1], in assay [2] and in assay [3] were 4 nM, 1 nM and 12 nM, respectively.

Regarding `O=C(CO)N1CCC[C@@H](Nc2nc(-c3cnn4ccccc34)nc(N3CCC(O)CC3)c2F)C1` [Example 22, 1-(5-Fluoro-6-{[(3R)-1-glycoloylpiperidin-3-yl]amino}-2-pyrazolo[1,5-a]pyridin-3-ylpyrimidin-4-yl)piperidin-4-ol], the figures for the IC50 in assay [1], in assay [2] and in assay [3] were 4 nM, 0.7 nM and 7 nM, respectively.

As for `COc1cc(-c2cc(N[C@@H]3CCCN(C(=O)CO)C3)nc(-c3cnn4ccccc34)n2)ccn1` [Example 98, 2-((3R)-3-{[6-(2-Methoxypyridin-4-yl)-2-pyrazolo[1,5-a]pyridin-3-ylpyrimidin-4-yl]amino}piperidin-1-yl)-2-oxoethanol], the IC50 in assay [1] stood at 5 nM; in assay [3], 3 nM.

`Cc1ncc(-c2nc(-c3cnn4ccccc34)nc(N[C@@H]3CCCN(C(=O)CO)C3)c2F)cn1` [Example 82, 2-{(3R)-3-[(5-Fluoro-2′-methyl-2-pyrazolo[1,5-a]pyridin-3-yl-4,5′-bipyrimidin-6-yl)amino]piperidin-1-yl}-2-oxoethanol]: the IC50 stood at 8 nM in assay [1], 2 nM in assay [2] and 9 nM in assay [3].

For the compound `N#CC[C@H]1CC[C@H](Nc2nc(-c3cnn4ccccc34)nc(N3CCC(N)CC3)c2F)CC1` [Example 2, (Trans-4-{[6-(4-aminopiperidin-1-yl)-5-fluoro-2-pyrazolo[1,5-a]pyridin-3-ylpyrimidin-4-yl]amino}cyclohexyl)acetonitrile], the values for the IC50 in assay [1], in assay [2] and in assay [3] were 4 nM, 1 nM and 82 nM, respectively.

Turning to `COCCOc1cc(N[C@@H]2CCCN(C(=O)CO)C2)nc(-c2cnn3ccccc23)n1` [Example 96, 2-((3R)-3-{[6-(2-Methoxyethoxy)-2-pyrazolo[1,5-a]pyridin-3-ylpyrimidin-4-yl]amino}piperidin-1-yl)-2-oxoethanol], the results for the IC50 in assay [1], in assay [2] and in assay [3] were 2 nM, 1 nM and 6 nM, respectively.

With `COc1nc(-c2cnn3ccccc23)nc(O[C@@H]2CCCN(C(=O)CO)C2)c1F` [Example 63, 2-{(3R)-3-[(5-Fluoro-6-methoxy-2-pyrazolo[1,5-a]pyridin-3-ylpyrimidin-4-yl)oxy]piperidin-1-yl}-2-oxoethanol], the IC50 in assay [1] came to 9 nM; in assay [2], 3 nM; in assay [3] it was 127 nM.

Regarding `Cc1cc(-c2nc(-c3cnn4ccccc34)nc(O[C@@H]3CCCN(C(=O)CC#N)C3)c2F)ccn1` [Example 72, 3-((3R)-3-{[5-Fluoro-6-(2-methylpyridin-4-yl)-2-pyrazolo[1,5-a]pyridin-3-ylpyrimidin-4-yl]oxy}piperidin-1-yl)-3-oxopropanenitrile], the IC50 worked out at 6 nM in assay [1], 1 nM in assay [2] and 6 nM in assay [3].

In the case of `N#CC[C@H]1CC[C@H](Nc2nc(-c3cnn4ccccc34)nc(NCCO)c2F)CC1` [Example 8, [Trans-4-({5-fluoro-6-[(2-hydroxyethyl)amino]-2-pyrazolo[1,5-a]pyridin-3-ylpyrimidin-4-yl}amino)cyclohexyl]acetonitrile], the IC50 in assay [1] stood at 10 nM; in assay [3], 16 nM.

As for `CN1CCN(c2nc(-c3cnn4ccccc34)nc(O[C@@H]3CCCN(C(=O)CC#N)C3)c2F)CC1` [Example 68, 3-((3R)-3-{[5-Fluoro-6-(4-methylpiperazin-1-yl)-2-pyrazolo[1,5-a]pyridin-3-ylpyrimidin-4-yl]oxy}piperidin-1-yl)-3-oxopropanenitrile], the half-inhibitory concentration (IC50) in assay [1] worked out at 6 nM; in assay [2], 1 nM; in assay [3], 48 nM.

For `Cc1cc(-c2cc(N[C@@H]3CCCN(C(=O)CC#N)C3)nc(-c3cnn4ccccc34)n2)cc(C)n1` [Example 102, 3-((3R)-3-{[6-(2,6-Dimethylpyridin-4-yl)-2-pyrazolo[1,5-a]pyridin-3-ylpyrimidin-4-yl]amino}piperidin-1-yl)-3-oxopropanenitrile], the values for the IC50 in assay [1], in assay [2] and in assay [3] were 5 nM, 2 nM and 1 nM, respectively.

With `Cc1cc(-c2nc(-c3cnn4ccccc34)nc(N[C@@H]3CCCN(C(=O)CC#N)C3)c2F)cc(C)n1` [Example 87, 3-((3R)-3-{[6-(2,6-Dimethylpyridin-4-yl)-5-fluoro-2-pyrazolo[1,5-a]pyridin-3-ylpyrimidin-4-yl]amino}piperidin-1-yl)-3-oxopropanenitrile], the IC50 was determined as 3 nM in assay [1], 1 nM in assay [2] and 10 nM in assay [3].

`C[C@H](Nc1nc(-c2cnn3ccccc23)nc(N2CCC(N)CC2)c1F)c1ccc(F)cn1` [Example 11, 6-(4-Aminopiperidin-1-yl)-5-fluoro-N-[(1S)-1-(5-fluoropyridin-2-yl)ethyl]-2-pyrazolo[1,5-a]pyridin-3-ylpyrimidin-4-amine]: the results for the IC50 in assay [1], in assay [2] and in assay [3] were 3 nM, 1 nM and 40 nM, respectively.

With “3-((3R)-3-{[5-Fluoro-6-(4-hydroxypiperidin-1-yl)-2-pyrazolo[1,5-a]pyridin-3-ylpyrimidin-4-yl]oxy}piperidin-1-yl)-3-oxopropanenitrile [Example 76]”, the IC50 in assay [1] was 5 nM; in assay [2], 1 nM; in assay [3], 9 nM.

As to `O=C(CO)N1CCC[C@@H](Nc2nc(-c3cnn4ccccc34)nc(-c3ccncc3)c2F)C1` [Example 80, 2-{(3R)-3-[(5-Fluoro-2-pyrazolo[1,5-a]pyridin-3-yl-6-pyridin-4-ylpyrimidin-4-yl)amino]piperidin-1-yl}-2-oxoethanol], the IC50 was determined as 4 nM in assay [1], 1 nM in assay [2] and 2 nM in assay [3].

In the case of `CCOC(=O)c1ccc(-c2nc(-c3cnn4ccccc34)nc(N[C@@H]3CCCN(C(=O)CO)C3)c2F)cn1` [Example 38, Ethyl 5-(5-fluoro-6-{[(3R)-1-glycoloylpiperidin-3-yl]amino}-2-pyrazolo[1,5-a]pyridin-3-ylpyrimidin-4-yl)pyridine-2-carboxylate], the IC50 in assay [1] amounted to 6 nM; in assay [2] it was 2 nM; in assay [3], 4 nM.

As to `COc1nc(-c2cnn3ccccc23)nc(N[C@@H]2CCCN(C(=O)CO)C2)c1C` [Example 93, 2-{(3R)-3-[(6-Methoxy-5-methyl-2-pyrazolo[1,5-a]pyridin-3-ylpyrimidin-4-yl)amino]piperidin-1-yl}-2-oxoethanol], the IC50 in assay [1] amounted to 6 nM; in assay [2], 3 nM; in assay [3] it was 23 nM.

Take `O=C(CO)N1CCC[C@@H](Nc2nc(-c3cnn4ccccc34)nc(-c3ccc(CO)nc3)c2F)C1` [Example 84, 2-[(3R)-3-({5-Fluoro-6-[6-(hydroxymethyl)pyridin-3-yl]-2-pyrazolo[1,5-a]pyridin-3-ylpyrimidin-4-yl}amino)piperidin-1-yl]-2-oxoethanol]: the figures for the IC50 in assay [1] and in assay [3] were 5 nM and 2 nM, respectively.

Consider `N#Cc1cnc(N2CCC[C@@H](Nc3nc(-c4cnn5ccccc45)nc(OCCO)c3F)C2)cn1` [Example 54, 5-((3R)-3-{[5-fluoro-6-(2-hydroxyethoxy)-2-pyrazolo[1,5-a]pyridin-3-ylpyrimidin-4-yl]amino}piperidin-1-yl)pyrazine-2-carbonitrile], for which the IC50 in assay [3] was found to be 7 nM.

For `NC(=O)c1nc(-c2cnn3ccccc23)nc(N[C@@H]2CCCN(C(=O)CO)C2)c1F` [Example 48, 5-Fluoro-6-{[(3R)-1-glycoloylpiperidin-3-yl]amino}-2-pyrazolo[1,5-a]pyridin-3-ylpyrimidine-4-carboxamide], the IC50 in assay [1] worked out at 5 nM; in assay [3], 13 nM.

For `N#CCC(=O)N1CCC[C@@H](Oc2nc(-c3cnn4ccccc34)nc(OCCO)c2F)C1` [Example 66, 3-((3R)-3-{[5-Fluoro-6-(2-hydroxyethoxy)-2-pyrazolo[1,5-a]pyridin-3-ylpyrimidin-4-yl]oxy}piperidin-1-yl)-3-oxopropanenitrile], the figures for the IC50 in assay [1] and in assay [3] were 4 nM and 10 nM, respectively.

In the case of `O=C(O)c1ccc(-c2nc(-c3cnn4ccccc34)nc(N[C@@H]3CCCN(C(=O)CO)C3)c2F)cn1` [Example 79, 5-(5-Fluoro-6-{[(3R)-1-glycoloylpiperidin-3-yl]amino}-2-pyrazolo[1,5-a]pyridin-3-ylpyrimidin-4-yl)pyridine-2-carboxylic acid], the IC50 worked out at 6 nM in assay [1] and 2 nM in assay [3].

Take `COc1ccc(-c2nc(-c3cnn4ccccc34)nc(N[C@@H]3CCCN(C(=O)CO)C3)c2F)cn1` [Example 35, 2-((3R)-3-{[5-Fluoro-6-(6-methoxypyridin-3-yl)-2-pyrazolo[1,5-a]pyridin-3-ylpyrimidin-4-yl]amino}piperidin-1-yl)-2-oxoethanol]: the IC50 in assay [3] came out at 7 nM.

`CCOCCOc1nc(-c2cnn3ccccc23)nc(N[C@@H]2CCCN(C(=O)CO)C2)c1F` [Example 83, 2-((3R)-3-{[6-(2-Ethoxyethoxy)-5-fluoro-2-pyrazolo[1,5-a]pyridin-3-ylpyrimidin-4-yl]amino}piperidin-1-yl)-2-oxoethanol]: the IC50 in assay [1] is 4 nM; in assay [3], 32 nM.

One may read the IC50 as the midpoint of a concentration-inhibition curve. Read a high IC50 as a need for much substance.
